Results: US11918659B2, “Materials and methods for inducing therapeutic hypothermia in a mammalian subject” (priority 2018, dated 2024)

Test system: TRPV1-overexpressed HEK293 cells
Conditions: FIGS. 1F-1K, tested concentrations 0-5 μM

Compound: CC(C)(C)c1cc2c(O)c(c1)Cc1cc(C(C)(C)C)cc(c1O)Cc1cc(C(C)(C)C)cc(c1O)Cc1cc(C(C)(C)C)cc(c1O)C2 [4-tert-Butylcalix[4]arene]
- toxicity on the cells of the calixarene derivative in the formulation: did not cause any toxicity
